Assay type in all cases: in vivo
The subject of assay [1] is Arabidopsis thaliana expressing AtCesA3_S983F_S1040L (SEQ ID 3). Description: 48-well plate growth inhibition, T2 seeds, tolerance factor. To be noted: based on IC50 values of growth inhibition, seven to ten days after seeding. The protocol:
(§1) Transgenic Arabidopsis thaliana plants (T2) are assayed for improved tolerance to azine herbicides like e. g. 6-cyclopentyl-N4-(2,3,4,5,6-pentafluorophenyl)-1,3,5-triazine-2,4-diamine in 48-well plates. Therefore, T2 seeds are surface sterilized by stirring for 5 min in ethanol+water (70+30 by volume), rinsing one time with ethanol+water (70+30 by volume) and two times with sterile, deionized water. The seeds are resuspended in 0.1% agar dissolved in water (w/v) Four to five seeds per well are plated on solid nutrient medium consisting of half-strength murashige skoog nutrient solution, pH 5.8 (Murashige and Skoog (1962) Physiologia Plantarum 15: 473-497). Compounds are dissolved in dimethylsulfoxid (DMSO) and added to the medium prior solidification (final DMSO concentration 0.1%). Multi well plates are incubated in a growth chamber at 22° C., 75% relative humidity and 110 μmol Phot*m^−2*s^−1 with 14:10 h light:dark photoperiod. Growth inhibition is evaluated seven to ten days after seeding in comparison to wild type plants. Tolerance factors are calculated based on IC50 values of growth inhibition of transformed versus non-transformed Arabidopsis plants.

The subject of assay [2] is Arabidopsis thaliana expressing AtCesA3_wt (SEQ ID 3). The description is as above. The settings on record: based on IC50 values of growth inhibition, seven to ten days after seeding. The method, then:
as §1

In assay [3] the test system is Arabidopsis thaliana expressing AtCesA3_S983F_S1037F (SEQ ID 3). The description is as above. The settings on record: based on IC50 values of growth inhibition, seven to ten days after seeding. The method, then:
as §1

The subject of assay [4] is Arabidopsis thaliana expressing AtCesA1_G1009D_G1013R (SEQ ID 1). The description is as above. The settings on record: based on IC50 values of growth inhibition, seven to ten days after seeding. The method, then:
as §1

Assay [5] deals with Arabidopsis thaliana expressing AtCesA1_wt (SEQ ID 1). Described as above. To be noted: based on IC50 values of growth inhibition, seven to ten days after seeding. The method, then: as §1
The test system of assay [6] is Brassica napus wildtype. Description: 6-well plate injury test, seeds on vermiculite. The settings on record: 7 days after treatment. The method, then:
(§2) Transgenic Brassica napus plants are assayed for improved tolerance to azine herbicides like e. g. 6-cyclopentyl-N4-(2,3,4,5,6-pentafluorophenyl)-1,3,5-triazine-2,4-diamine in 6-well plates. Therefore, 5-6 T1 seeds are sown on vermiculite and watered with half-strength murashige skoog nutrient solution, pH 5.8 (Murashige and Skoog (1962) Physiologia Plantarum 15: 473-497). Compounds are dissolved in dimethylsulfoxid (DMSO) and added to the medium (final DMSO concentration 0.1%). Multi well plates are incubated in a growth chamber at 22° C., 75% relative humidity and 110 μmol Phot*m^−2*s^−1 with 14: 10 h light: dark photoperiod. Growth inhibition is evaluated seven to ten days after seeding in comparison to wild type plants. Plant injury is rated on a scale of 0% to 100%, 0% being no injury and 100% being complete death.

In assay [7] the test system is Arabidopsis thaliana expressing AtCesA1_P1010L_G1013R (SEQ ID 1). Description: 48-well plate growth inhibition, T2 seeds, tolerance factor. To be noted: based on IC50 values of growth inhibition, seven to ten days after seeding. The method, then:
as §1

Assay [8] relates to Brassica napus expressing BnaAnng01240D (SEQ ID 20) variant S1041L. Description: 6-well plate injury test, T1 seeds on vermiculite. The settings on record: 7 days after treatment. The protocol:
as §2

In the case of `Cc1cccc(-n2nc(C(N)=O)nc2-c2ccccc2)c1` [1-(m-tolyl)-5-phenyl-1,2,4-triazole-3-carboxamide, reference compound], the “Relative tolerance rate as compared to non-transgenic Arabidopsis plants (non-transgenic = 1.0)” value was found to be 100 in assay [1]; 4 in assay [2]; 80 in assay [3]; 25 in assay [4]; 3 in assay [5].

On to `NC(=O)c1nc(-c2ccccc2)n(-c2ccc(Cl)c(COCC(F)(F)C(F)(F)F)c2)n1` [1-[4-chloro-3-(2,2,3,3,3-pentafluoropropoxymethyl)phenyl]-5-phenyl-1,2,4-triazole-3-carboxamide, reference compound], for which the average phytotox value in assay [6] (10^-4M) amounted to 96%; in assay [6] (10^-5M), 93%; in assay [6] (10^-6M), 84%; in assay [6] (10^-7M), 41%; in assay [6] (10^-8M) it was 4%; in assay [8] (BnaAnng01240D S1041L event 1, 10^-4M), 95%. Also, the average phytotox value amounted to 85% in assay [8] (BnaAnng01240D S1041L event 1, 10^-5M); 80% in assay [8] (BnaAnng01240D S1041L event 1, 10^-6M); 10% in assay [8] (BnaAnng01240D S1041L event 1, 10^-7M); 0% in assay [8] (BnaAnng01240D S1041L event 1, 10^-8M); 90% in assay [8] (BnaAnng01240D S1041L event 2, 10^-4M); 90% in assay [8] (BnaAnng01240D S1041L event 2, 10^-5M). In addition, the average phytotox value in assay [8] (BnaAnng01240D S1041L event 2, 10^-6M) is 90%; in assay [8] (BnaAnng01240D S1041L event 2, 10^-7M), 0%; in assay [8] (BnaAnng01240D S1041L event 2, 10^-8M), 0%. The “Relative tolerance rate as compared to non-transgenic Arabidopsis plants (non-transgenic = 1.0)” value in assay [7] was found to be 400.

The record behind these values is patent publication US12203089B2, “Plants having increased tolerance to herbicides” (BASF SE, priority 2015, dated 2025).
